According to ChEMBL document CHEMBL5303573, “Mapping human microbiome drug metabolism by gut bacteria and their genes” (Nature, 2019):

How the values were obtained:
[1] = The drug is tested on Bacteroides caccae strain: ATCC43185 for biotransformation. The drug concentrations were measured before and after a 12-h incubation by liquid-chromatography-coupled mass spectrometry (LC–MS); details: 2 µM
[2] = The drug is tested on Bacteroides fragilis strain: ATCC43859 for biotransformation. The drug concentrations were measured before and after a 12-h incubation by liquid-chromatography-coupled mass spectrometry (LC–MS); details: 2 µM
[3] = The drug is tested on Bacteroides vulgatus strain: ATCC8482 for biotransformation. The drug concentrations were measured before and after a 12-h incubation by liquid-chromatography-coupled mass spectrometry (LC–MS); details: phocaeicola vulgatus, 2 µM
[4] = The drug is tested on Odoribacter splanchnicus strain: fecal isolate for biotransformation. The drug concentrations were measured before and after a 12-h incubation by liquid-chromatography-coupled mass spectrometry (LC–MS); details: 2 µM
[5] = The drug is tested on Clostridium sp. strain: fecal isolate for biotransformation. The drug concentrations were measured before and after a 12-h incubation by liquid-chromatography-coupled mass spectrometry (LC–MS); details: 2 µM
[6] = The drug is tested on Clostridium ramosum strain: DSM1402 for biotransformation. The drug concentrations were measured before and after a 12-h incubation by liquid-chromatography-coupled mass spectrometry (LC–MS); details: thomasclavelia ramosa, 2 µM
[7] = The drug is tested on Coprococcus comes strain: ATCC27758 for biotransformation. The drug concentrations were measured before and after a 12-h incubation by liquid-chromatography-coupled mass spectrometry (LC–MS); format: ADME; set-up: dose 2 uM, timepoint 0 vs 12 hours; details: 2 µM
[8] = The drug is tested on Dorea formicigenerans strain: ATCC27755 for biotransformation. The drug concentrations were measured before and after a 12-h incubation by liquid-chromatography-coupled mass spectrometry (LC–MS); details: 2 µM
[9] = The drug is tested on Eubacterium rectale strain: ATCC33656 for biotransformation. The drug concentrations were measured before and after a 12-h incubation by liquid-chromatography-coupled mass spectrometry (LC–MS); details: agathobacter rectalis, 2 µM
[10] = The drug is tested on Ruminococcus lactaris strain: ATCC29176 for biotransformation. The drug concentrations were measured before and after a 12-h incubation by liquid-chromatography-coupled mass spectrometry (LC–MS); details: 2 µM
[11] = The drug is tested on Edwardsiella tarda strain: ATCC23685 for biotransformation. The drug concentrations were measured before and after a 12-h incubation by liquid-chromatography-coupled mass spectrometry (LC–MS); details: 2 µM
[12] = The drug is tested on Enterobacter cancerogenus strain: ATCC35316 for biotransformation. The drug concentrations were measured before and after a 12-h incubation by liquid-chromatography-coupled mass spectrometry (LC–MS); details: 2 µM
[13] = bacteroides fragilis, 12 h, 2 µM
Description: The drug is tested on Bacteroides fragilis strain: NCTC 9343 for biotransformation. The drug concentrations were measured before and after a 12-h incubation by liquid-chromatography-coupled mass spectrometry (LC–MS)

[14] = bacteroides thetaiotaomicron, 12 h, 2 µM
Description: The drug is tested on Bacteroides thetaiotaomicron strain: 3731 for biotransformation. The drug concentrations were measured before and after a 12-h incubation by liquid-chromatography-coupled mass spectrometry (LC–MS)

[15] = bacteroides thetaiotaomicron, 12 h, 2 µM; remark: listed apart in the source
Description: The drug is tested on Bacteroides thetaiotaomicron strain: 7330 for biotransformation. The drug concentrations were measured before and after a 12-h incubation by liquid-chromatography-coupled mass spectrometry (LC–MS)

[16] = parabacteroides distasonis, 12 h, 2 µM
Description: The drug is tested on Parabacteroides distasonis strain: ATCC8503 for biotransformation. The drug concentrations were measured before and after a 12-h incubation by liquid-chromatography-coupled mass spectrometry (LC–MS)

[17] = limosilactobacillus reuteri cf48-3a, 12 h, 2 µM
Description: The drug is tested on Lactobacillus reuteri CF48-3A strain: BEI HM-102 for biotransformation. The drug concentrations were measured before and after a 12-h incubation by liquid-chromatography-coupled mass spectrometry (LC–MS)

[18] = akkermansia muciniphila, 12 h, 2 µM
Description: The drug is tested on Akkermansia muciniphila strain: ATCC BAA-835 for biotransformation. The drug concentrations were measured before and after a 12-h incubation by liquid-chromatography-coupled mass spectrometry (LC–MS)

[19] = The drug is tested on Blautia luti strain: DSM14534 for biotransformation. The drug concentrations were measured before and after a 12-h incubation by liquid-chromatography-coupled mass spectrometry (LC–MS); format: ADME; set-up: dose 2 uM, timepoint 0 vs 12 hours; details: 2 µM
[20] = bacteroides thetaiotaomicron, 12 h, 2 µM; remark: listed apart in the source
Description: The drug is tested on Bacteroides thetaiotaomicron strain: VPI-5482 for biotransformation. The drug concentrations were measured before and after a 12-h incubation by liquid-chromatography-coupled mass spectrometry (LC–MS)

Row | Structure (SMILES) | Bacterial Biotransformation [1] | Bacterial Biotransformation [2] | Bacterial Biotransformation [3] | Bacterial Biotransformation [4] | Bacterial Biotransformation [5] | Bacterial Biotransformation [6] | Bacterial Biotransformation [7] | Bacterial Biotransformation [8] | Bacterial Biotransformation [9] | Bacterial Biotransformation [10] | Bacterial Biotransformation [11] | Bacterial Biotransformation [12] | Bacterial Biotransformation [13] | Bacterial Biotransformation [14] | Bacterial Biotransformation [15] | Bacterial Biotransformation [16] | Bacterial Biotransformation [17] | Bacterial Biotransformation [18] | Bacterial Biotransformation [19] | Bacterial Biotransformation [20]
1 | CCCCC(=O)N(Cc1ccc(-c2ccccc2-c2nnn[nH]2)cc1)[C@H](C(=O)O)C(C)C | Compound NOT metabolized | Compound metabolized | Compound metabolized | Compound metabolized | Compound NOT metabolized | Compound NOT metabolized | Compound NOT metabolized | Compound NOT metabolized | Compound NOT metabolized | Compound NOT metabolized | Compound NOT metabolized | Compound NOT metabolized | Compound NOT metabolized | Compound metabolized | Compound metabolized | Compound metabolized | Compound NOT metabolized | Compound NOT metabolized |  | 
2 | COC(=O)[C@H]1[C@H]2C[C@@H]3c4[nH]c5cc(OC)ccc5c4CCN3C[C@H]2C[C@@H](OC(=O)c2cc(OC)c(OC)c(OC)c2)[C@@H]1OC [RESERPINE] | Compound NOT metabolized | Compound NOT metabolized | Compound NOT metabolized |  | Compound NOT metabolized | Compound NOT metabolized | Compound NOT metabolized | Compound NOT metabolized | Compound NOT metabolized | Compound NOT metabolized | Compound NOT metabolized | Compound NOT metabolized | Compound NOT metabolized | Compound NOT metabolized | Compound NOT metabolized | Compound NOT metabolized | Compound NOT metabolized | Compound NOT metabolized | Compound NOT metabolized | Compound NOT metabolized
3 | CCN(CC)CCNC(=O)c1cc(S(C)(=O)=O)ccc1OC [TIAPRIDE] | Compound NOT metabolized | Compound NOT metabolized | Compound NOT metabolized | Compound NOT metabolized | Compound NOT metabolized | Compound NOT metabolized | Compound NOT metabolized | Compound NOT metabolized | Compound NOT metabolized | Compound NOT metabolized | Compound NOT metabolized | Compound NOT metabolized | Compound NOT metabolized | Compound NOT metabolized | Compound NOT metabolized | Compound NOT metabolized | Compound NOT metabolized | Compound NOT metabolized | Compound NOT metabolized | Compound NOT metabolized
